Tests used:
[1] = Microsomal stability screen, mouse; conditions: 1 μM
[2] = Microsomal stability screen, human; conditions: 1 μM
[3] = molecular target: T1, catalytically active fragment of SIRT3 (Homo sapiens, UniProt Q9NTG7); assay: Fluor-de-Lys biochemical sirtuin deacetylation assay, SIRT3 counter-screen; conditions: 10 μM counter-screen
T1 construct: the catalytically active fragment of SIRT3
T1 sequence (Q9NTG7 118-380 limits assumed): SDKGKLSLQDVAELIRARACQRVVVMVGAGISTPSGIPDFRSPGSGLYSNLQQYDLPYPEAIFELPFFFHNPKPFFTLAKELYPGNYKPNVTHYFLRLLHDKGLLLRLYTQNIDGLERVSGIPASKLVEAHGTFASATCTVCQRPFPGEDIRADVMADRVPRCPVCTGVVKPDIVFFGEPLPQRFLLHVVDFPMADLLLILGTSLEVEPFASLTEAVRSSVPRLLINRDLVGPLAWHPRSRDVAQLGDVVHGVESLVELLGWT
Method: (§1) To evaluate the potency and selectivity of the synthesized compounds robust, sensitive, and quantitative, biochemical sirtuin deacetylation assays were employed. (SIRT2 then SIRT1 and SIRT3 for selectivity). Sirtuin activity was assessed using the Fluor-de-Lys assay with recombinant active enzymes SIRT1, SIRT2, and the catalytically active fragment of SIRT3, as described in the literature. […] AK-1 was included as the reference compound with each assay. […] Those compounds also were subjected to SIRT1 and SIRT3 assays to determine sirtuin selectivity.
(§2) As discussed above, Tables 1-10 are presented and followed by details relating to the synthesis and characterization of compounds prepared. Inhibition assays and related testing of such compounds are conducted according to well-known literature protocols including those found in Silverman, et al., Biorg. Med. Chem. Lett. 22 (2012) 2789-2793 and the references cited therein, such references and tests incorporated herein by reference.

SIRT2 = molecular target: T2, SIRT2 (Homo sapiens, UniProt Q8IXJ6); assay: Fluor-de-Lys biochemical sirtuin deacetylation assay, SIRT2; conditions: 10 μM
T2 construct: recombinant active enzymes SIRT1, SIRT2, and the catalytically active fragment of SIRT3
T2 sequence (Q8IXJ6 1-389): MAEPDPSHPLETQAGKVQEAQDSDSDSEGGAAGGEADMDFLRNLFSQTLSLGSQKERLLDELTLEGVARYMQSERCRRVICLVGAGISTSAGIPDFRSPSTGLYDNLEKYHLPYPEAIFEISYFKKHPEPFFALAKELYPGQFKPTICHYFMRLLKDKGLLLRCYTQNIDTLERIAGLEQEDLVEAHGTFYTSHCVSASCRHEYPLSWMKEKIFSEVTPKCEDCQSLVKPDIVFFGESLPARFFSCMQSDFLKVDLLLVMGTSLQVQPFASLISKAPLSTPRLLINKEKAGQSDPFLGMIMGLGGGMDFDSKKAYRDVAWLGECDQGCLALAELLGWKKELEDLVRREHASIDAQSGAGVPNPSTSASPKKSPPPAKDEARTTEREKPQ

SIRT1 = molecular target: T3, SIRT1 (Homo sapiens, UniProt Q96EB6); assay: Fluor-de-Lys biochemical sirtuin deacetylation assay, SIRT1 counter-screen; conditions: 10 μM counter-screen
T3 sequence (Q96EB6 1-747): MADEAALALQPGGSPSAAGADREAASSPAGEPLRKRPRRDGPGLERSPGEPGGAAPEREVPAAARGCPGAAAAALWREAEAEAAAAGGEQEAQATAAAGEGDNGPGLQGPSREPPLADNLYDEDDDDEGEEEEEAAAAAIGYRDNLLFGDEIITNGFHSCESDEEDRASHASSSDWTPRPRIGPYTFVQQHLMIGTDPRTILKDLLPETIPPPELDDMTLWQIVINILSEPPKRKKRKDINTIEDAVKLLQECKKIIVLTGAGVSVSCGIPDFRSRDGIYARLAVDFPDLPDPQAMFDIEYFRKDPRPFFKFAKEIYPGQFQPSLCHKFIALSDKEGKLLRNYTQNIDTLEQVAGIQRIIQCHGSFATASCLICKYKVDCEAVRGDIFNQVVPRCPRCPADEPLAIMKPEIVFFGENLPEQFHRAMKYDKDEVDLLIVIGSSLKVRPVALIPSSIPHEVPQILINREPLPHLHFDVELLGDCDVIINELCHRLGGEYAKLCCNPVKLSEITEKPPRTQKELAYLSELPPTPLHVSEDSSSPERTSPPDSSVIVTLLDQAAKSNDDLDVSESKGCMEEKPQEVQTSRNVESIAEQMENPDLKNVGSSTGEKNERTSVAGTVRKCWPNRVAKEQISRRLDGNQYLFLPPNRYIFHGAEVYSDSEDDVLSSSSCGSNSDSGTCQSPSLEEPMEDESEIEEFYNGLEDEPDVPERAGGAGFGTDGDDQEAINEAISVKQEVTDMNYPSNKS
Method: as §1, §2

SMILES	inhibition at 10 µM (SIRT2) [%]	melting point [°C]	also measured
CC(=O)c1ccc(N(C)S(=O)(=O)c2cccc(C(=O)Nc3ccc(Cl)cn3)c2)cc1 [Compound 103, 3-(N-(4-Acetylphenyl)-N-methylsulfamoyl)-N-(5-chloropyridin-2-yl)benzamide]	–	–	Mean remaining parent NADPH-free (%) [1]: 91%; Mean remaining parent with NADPH (%) [1]: 0%; Mean remaining parent NADPH-free (%) [2]: 82%; Mean remaining parent with NADPH (%) [2]: 12%
CN(c1ccc(Cl)cc1)S(=O)(=O)c1cccc(C(=O)Nc2ccc(C#N)cn2)c1 [Compound 71, 3-(N-(4-Chlorophenyl)-N-methylsulfamoyl)-N-(5-cyanopyridin-2-yl)benzamide]	–	–	Mean remaining parent NADPH-free (%) [1]: 96%; Mean remaining parent with NADPH (%) [1]: 1%; Mean remaining parent NADPH-free (%) [2]: 91%; Mean remaining parent with NADPH (%) [2]: 2%
CN(c1ccc(Cl)cc1)S(=O)(=O)c1cccc(C(=O)Nc2ccc(O)cn2)c1 [Compound 58, 3-(N-(4-chlorophenyl)-N-methylsulfamoyl)-N-(5-hydroxypyridin-2-yl)benzamide]	–	–	SIRT3 inhibition [3]: minimal SIRT3 inhibition
CC(=O)c1ccc(N(C)S(=O)(=O)c2cccc(C(=O)Nc3ccc(Cl)cc3)c2)cc1 [Compound 102, 3-(N-(4-Acetylphenyl)-N-methylsulfamoyl)-N-(4-chlorophenyl)benzamide]	–	–	Mean remaining parent NADPH-free (%) [1]: 108%; Mean remaining parent with NADPH (%) [1]: 0%; Mean remaining parent NADPH-free (%) [2]: 94%; Mean remaining parent with NADPH (%) [2]: 12%
CN(c1ccc(F)cc1)S(=O)(=O)c1cccc(C(=O)Nc2ccc(C#N)cc2)c1 [Compound 47, N-(4-Cyanophenyl)-3-(N-(4-fluorophenyl)-N-methylsulfamoyl)benzamide]	–	–	Mean remaining parent NADPH-free (%) [2]: 89%; Mean remaining parent with NADPH (%) [2]: 16%
CN(c1ccc(S(C)(=O)=O)cc1)S(=O)(=O)c1cccc(C(=O)Nc2ccc(Cl)cc2F)c1 [Compound 203Ae, N-(4-chloro-2-fluorophenyl)-3-(N-methyl-N-(4-(methylsulfonyl)phenyl)sulfamoyl)-benzamide]	26	182 to 183	–
CSc1ccc(COc2cccc(C(=O)Nc3ccc(C#N)cn3)c2)cc1 [Compound 216b, N-(5-cyanopyridin-2-yl)-3-((4-(methylthio)benzyl)oxy)benzamide]	22	146 to 147	–
CCN(c1ccc(OC)cc1)S(=O)(=O)c1cccc(C(=O)Nc2ccc(C#N)cc2)c1 [Compound 203Ba, N-(4-cyanophenyl)-3-(N-ethyl-N-(4-methoxyphenyl)sulfamoyl)benzamide]	53	168 to 169	–
CN(C(=O)c1cccc(S(=O)(=O)N(C)c2ccc(S(C)(=O)=O)cc2)c1)c1ccc(C#N)cc1F [Compound 203Ak, N-(4-cyano-2-fluorophenyl)-N-methyl-3-(N-methyl-N-(4-(methylsulfonyl)phenyl)-sulfamoyl)benzamide]	0	156 to 157	–
CN(c1ccc(F)cc1)S(=O)(=O)c1cccc(C(=O)Nc2ccc(Cl)cn2)c1 [Compound 43, N-(5-chloropyridin-2-yl)-3-(N-(4-fluorophenyl)-N-methylsulfamoyl)benzamide]	–	–	SIRT1 inhibition (SIRT1): minimal SIRT1 inhibition
CC(=O)c1ccc(C(C)Oc2cccc(C(=O)Nc3ccc(C#N)cc3)c2)cc1 (stereo not shown) [Compound 216Ac, 3-(1-(4-acetylphenyl)ethoxy)-N-(4-cyanophenyl)benzamide]	93	79 to 81	–
N#Cc1ccc(NC(=O)c2cccc(SCc3ccc(F)cc3)c2)cc1 [Compound 211g, N-(4-cyanophenyl)-3-((4-fluorobenzyl)thio)benzamide]	59	148 to 150	–
CN(c1ccc(Cl)cc1)S(=O)(=O)c1cc(C(=O)Nc2ccc([S+](C)[O-])cc2)ccn1 (stereo not shown) [Compound 203An, 2-(N-(4-chlorophenyl)-N-methylsulfamoyl)-N-(4-(methylsulfinyl)phenyl)-isonicotinamide]	28	172 to 174	–
CN(c1ccc(Cl)cc1)S(=O)(=O)c1cccc(C(=O)Nc2ccc(C(F)(F)F)cn2)c1 [Compound 56, 3-(N-(4-chlorophenyl)-N-methylsulfamoyl)-N-(5-(trifluoromethyl)pyridin-2-yl)benzamide]	–	–	SIRT1 inhibition (SIRT1): minimal SIRT1 inhibition
CN(c1ccc(S(C)(=O)=O)cc1)S(=O)(=O)c1cccc(NC(=O)c2ccc([S+](C)[O-])cc2)c1 (stereo not shown) [Compound 207c, N-(3-(N-methyl-N-(4-(methylsulfonyl)phenyl)sulfamoyl)phenyl)-4-(methylsulfinyl)benzamide]	47	184 to 186	–
COc1ccc(CSc2cc(C(=O)Nc3ccc(C#N)cc3)ccn2)cc1 [Compound 211f, N-(4-cyanophenyl)-2-((4-methoxybenzyl)thio)isonicotinamide]	68	201 to 203	–
C[C@H](Oc1cncc(C(=O)Nc2ccc(C#N)cc2)c1)c1ccc(F)cc1 [Compound 216s, (S)—N-(4-cyanophenyl)-5-(1-(4-fluorophenyl)ethoxy)nicotinamide]	27	152 to 153	–
N#Cc1ccc(COc2cccc(C(=O)Nc3ccc(C#N)cc3)c2)cc1 [Compound 216q, 3-((4-cyanobenzyl)oxy)-N-(4-cyanophenyl)benzamide]	56	205 to 207	–
CCCN(CCC)S(=O)(=O)c1cccc(C(=O)Nc2ccc(Br)cc2)c1 [Compound 203d, N-(4-bromophenyl)-3-(N,N-dipropylsulfamoyl)benzamide]	9	160 to 162	–
O=C(Nc1ccc(Cl)cn1)c1cccc(S(=O)(=O)Nc2ccc(Cl)cn2)c1 [Compound 41, N-(5-chloropyridin-2-yl)-3-(N-(5-chloropyridin-2-yl)sulfamoyl)benzamide]	–	–	SIRT3 inhibition [3]: minimal SIRT3 inhibition
COc1ccc(COc2cccc(C(=O)Nc3ccc(C#N)cc3)c2)cc1 [Compound 216c, N-(4-cyanophenyl)-3-((4-methoxybenzyl)oxy)benzamide]	40	147 to 148	–
CCCN(CCC)S(=O)(=O)c1cccc(C(=O)Nc2cccc([N+](=O)[O-])c2)c1 [Compound 203h, 3-(N,N-dipropylsulfamoyl)-N-(3-nitrophenyl)benzamide]	50	126 to 128	–
CN(C(=O)c1cccc(S(=O)(=O)N(C)c2ccc(Cl)cc2)c1)c1ccc(C#N)cc1F [Compound 203Ac, 3-(N-(4-chlorophenyl)-N-methylsulfamoyl)-N-(4-cyano-2-fluorophenyl)-N-methylbenzamide]	15	169 to 170	–
CSc1ccc(CSc2cccc(C(=O)Nc3ccc(Cl)cn3)c2)cc1 [Compound 211b, N-(5-chloropyridin-2-yl)-3-((4-(methylthio)benzyl)thio)benzamide]	42	159 to 161	–
CC(=O)c1ccc(C(C)Oc2cncc(C(=O)Nc3ccc(C#N)cc3)c2)cc1 (stereo not shown) [Compound 216Ab, 5-(1-(4-acetylphenyl)ethoxy)-N-(4-cyanophenyl)nicotinamide]	84	181 to 183	–
